Assay results reported in ChEMBL document CHEMBL1201862, “PubChem BioAssay data set” (2004).
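Dose response: 5 concentrations. Exposure: 48 h. Format: 96-well plates. Endpoint: linear interpolation; highest concentration if not reached. Here, GI50 denotes the concentration required for 50% inhibition of growth.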 Activity calls are given as the source filed them. Cut-off read from the data, not from the text of the source: active = GI50 up to about 1.1 µM and inactive = higher.

What was measured:
Test in all cases: NCI anticancer screen, dose series, 48 h
[1] = tested on: SF-268
[2] = tested on: SNB-75
[3] = tested on: UACC-257
[4] = tested on: PC-3
[5] = tested on: Hs-578T
[6] = tested on: SR
[7] = tested on: COLO 205
[8] = tested on: A549
[9] = tested on: NCI-H226
[10] = tested on: EKVX
[11] = tested on: HCC 2998
[12] = tested on: U-251
[13] = tested on: SK-MEL-5
[14] = tested on: A498
[15] = tested on: RXF 393
[16] = tested on: SN12C
[17] = tested on: CCRF-CEM
[18] = tested on: SK-MEL-28
[19] = tested on: SF-295
[20] = tested on: K562
[21] = tested on: KM12
[22] = tested on: OVCAR-5
[23] = tested on: MOLT-4
[24] = tested on: HOP-62
[25] = tested on: SK-OV-3
[26] = tested on: Malme-3M
[27] = tested on: SK-MEL-2
[28] = tested on: OVCAR-3
[29] = tested on: HCT-116
[30] = tested on: SF-539
[31] = tested on: MDA-N
[32] = tested on: DU-145
[33] = tested on: CAKI-1
[34] = tested on: HOP-92
[35] = tested on: HT-29
[36] = tested on: HL-60
[37] = tested on: NCI-H522
[38] = tested on: MDA-MB-231
[39] = tested on: RPMI-8226
[40] = tested on: MCF7
[41] = tested on: SNB-19
[42] = tested on: ACHN
[43] = tested on: T47D
[44] = tested on: OVCAR-4
[45] = tested on: MDA-MB-435
[46] = tested on: NCI-H23
[47] = tested on: M14
[48] = tested on: 786-0
[49] = tested on: HCT-15
[50] = tested on: OVCAR-8
[51] = tested on: SW-620
[52] = tested on: NCI/ADR-RES
[53] = tested on: IGROV-1
[54] = tested on: UACC-62
[55] = tested on: NCI-H460
[56] = tested on: LOX IMVI

`NC(=O)C(=CNC(=S)Nc1ccccc1)C(N)=O` was tested, and the GI50 [1] was > 100 µM (inactive), the GI50 [2] was 64.9 µM (inactive) and the GI50 [3] was > 100 µM (inactive). For the same compound, the GI50 [4] was > 100 µM (inactive), the GI50 [5] was 45 µM (inactive) and the GI50 [6] was > 100 µM (inactive). The GI50 [7] was > 100 µM (inactive), the GI50 [8] was > 100 µM (inactive) and the GI50 [9] was > 100 µM (inactive). The GI50 [10] was > 100 µM (inactive), the GI50 [11] was > 100 µM (inactive) and the GI50 [12] was > 100 µM (inactive). For the same compound, the GI50 [13] was > 100 µM (inactive), the GI50 [14] was > 100 µM (inactive) and the GI50 [15] was > 100 µM (inactive). The GI50 [16] was > 100 µM (inactive), the GI50 [17] was > 100 µM (inactive) and the GI50 [18] was > 100 µM (inactive). The GI50 [19] was > 100 µM (inactive), the GI50 [20] was > 100 µM (inactive) and the GI50 [21] was > 100 µM (inactive). For the same compound, the GI50 [22] was > 100 µM (inactive), the GI50 [23] was > 100 µM (inactive) and the GI50 [24] was > 100 µM (inactive). The GI50 [25] was > 100 µM (inactive), the GI50 [26] was > 100 µM (inactive) and the GI50 [27] was > 100 µM (inactive). For the same compound, the GI50 [28] was 1.05 µM (active), the GI50 [29] was > 100 µM (inactive) and the GI50 [30] was > 100 µM (inactive). For the same compound, the GI50 [31] was > 100 µM (inactive), the GI50 [32] was > 100 µM (inactive) and the GI50 [33] was > 100 µM (inactive). For the same compound, the GI50 [34] was 29.9 µM (inactive), the GI50 [35] was > 100 µM (inactive) and the GI50 [36] was > 100 µM (inactive). The GI50 [37] was > 100 µM (inactive), the GI50 [38] was > 100 µM (inactive) and the GI50 [39] was > 100 µM (inactive). For the same compound, the GI50 [40] was > 100 µM (inactive), the GI50 [41] was > 100 µM (inactive) and the GI50 [42] was > 100 µM (inactive). For the same compound, the GI50 [43] was 97.7 µM (inactive), the GI50 [44] was > 100 µM (inactive) and the GI50 [45] was > 100 µM (inactive). For the same compound, the GI50 [46] was > 100 µM (inactive), the GI50 [47] was > 100 µM (inactive) and the GI50 [48] was > 100 µM (inactive). For the same compound, the GI50 [49] was greater than 100 µM, the GI50 [50] was > 100 µM (inactive) and the GI50 [51] was > 100 µM (inactive). The GI50 [52] was > 100 µM (inactive), the GI50 [53] was > 100 µM (inactive) and the GI50 [54] was > 100 µM (inactive). For the same compound, the GI50 [55] was > 100 µM (inactive) and the GI50 [56] was > 100 µM (inactive).
